# Read-outs that look alike come from different tables or passages of the source.
# Key:
# [1] = cited from earlier work
# [2] = Animal models of acute pancreatitis and lung injury (general statements); format: in vivo
# From the text: Preclinical data supports the use of CRAC inhibitors (e.g. N-(5-(6-Chloro-2,2-difluorobenzo[d][1,3]dioxol-5-yl)pyrazin-2-yl)-2-fluoro-6-methylbenzamide, Compound 1) in severe COVID-19 pneumonia.
# For example, Compound 1 was effective following i.p. injection in mice (Wen et al., Gastroenterol, 149: 481-492, 2015), and following 4-hour i.v. infusion in rats (Waldron et al., J Physiol, 597.12: 3085-3105, 2019).
# 3T3 = assay: In vitro 3T3 phototoxicity; format: cell-based
# [3] = test system: bacterial reverse mutation; assay: Ames bacterial reverse mutation assay; format: cell-based; details: in vitro
# [4] = Mouse caerulein-induced pancreatitis model; format: in vivo; details: single IP dose
# From the text: Potential efficacy of Compound 1 in treating acute lung injury was established in three diverse in vivo models of AP that cause both pancreatic damage and lung inflammation (TLCS-induced, FAEE-induced, and caerulein-induced acute pancreatitis models).
# [5] = test system: stimulated IL-2 release in whole blood; assay: Whole blood assay of stimulated IL-2 release; format: cell-based; details: Human whole blood; SEM (n); read-out: Compound 1 IC50, whole blood assay of stimulated IL-2 release
# From the text: (§1) CRAC channels may play a proximal role in a calcium-calcineurin pathway leading to cytokine release in immune cells.
# [6] = In vivo micronucleus study (bone marrow micronucleus and liver Comet assays); details: rats
# [7] = test system: TNFα released from human PBMCs; assay: Cytokine released from human PBMCs: TNFα; format: cell-based
# From the text: as §1
# [8] = Phase 1 multiple ascending dose study (Compound 1 Test 102), healthy subjects; details: for AUC(0-t) / Cmax: human, plasma, intravenous
# Description: One of the subjects received placebo at the maximum dose volume of emulsion, 1.3 mL/kg, for 7 days, whereas all others were dosed on a weight-based adjustment of dose volume.
# [9] = Phase 2 open-label study in acute pancreatitis with SIRS and hypoxemia (Compound 1 Test 201); format: in vivo, human
# Description: A Phase 2, open-label, dose-response, multi-center study of Compound 1 was conducted in patients with AP and accompanying SIRS and hypoxemia (Compound 1 Test 201). One patient was randomized having SIRS alone at Screening. The primary objective of the study was to evaluate safety and tolerability; the secondary objective was to evaluate efficacy and the PK profile of Compound 1.
# The study had 2 phases; the Initial Phase consisted of 2 concurrently enrolled cohorts and the Second Phase consisted of 2 concurrently enrolled cohorts. In total, it was planned to have 4 Cohorts containing 24 adult male and female patients with AP and accompanying SIRS and hypoxemia. In the Initial Phase, 4 female patients were to be randomized in a 3:1 ratio to receive Compound 1+Supportive Care (SC) or SC alone (Cohort 1). Concurrently, 4 male patients were to be randomized in a 3:1 ratio to receive Compound 1+SC or SC alone (Cohort 2). Doses were to be 1.0 mg/kg on Day 1 and 1.4 mg/kg daily on Days 2, 3 and 4 (low dose regimen). In the Second Phase, 8 female patients were to be randomized in a 3:1 ratio to receive Compound 1+SC or SC alone (Cohort 3). Concurrently, 8 male patients were to be randomized in a 3:1 ratio to receive Compound 1+SC or SC alone (Cohort 4). Planned doses for both Cohorts 3 and 4 were to be 2.08 mg/kg daily on Days 1 and 2 and 1.6 mg/kg daily on Days 3 and 4 (high dose regimen).
# The decision to start Cohort 3 in the Second Phase was made after study personnel reviewed the available efficacy, safety and tolerability data from Cohort 1 and discussed this with the Principal Investigator (PI). […] Cohort 3, therefore, received the same dose level and schedule as Cohort 1, […] on Day 1 and 1.4 mg/kg daily on Days 2, 3 and 4. The decision to start Cohort 4 in the Second Phase of the study was made after study personnel reviewed the available efficacy, safety and tolerability data from Cohort 2 and discussed this with the Principal Investigator. Cohort 4, therefore, received the original planned dose level and schedule; 2.08 mg/kg daily on Days 1 and 2 and 1.6 mg/kg daily on Days 3 and 4.
# The first infusion of Compound 1 was started within 6 (up to 8) hours of the patient or LAR providing informed consent and was administered as a continuous IV infusion over 4 hours. Subsequent infusions were to be started every 24 hours (±1 hour) from the start of the first infusion.
smiles,measurement,setting,value
"Cc1cccc(F)c1C(=O)Nc1cnc(-c2cc3c(cc2Cl)OC(F)(F)O3)cn1 [Compound 1, N-(5-(6-Chloro-2,2-difluorobenzo[d][1,3]dioxol-5-yl)pyrazin-2-yl)-2-fluoro-6-methylbenzamide]",cytokine levels in serum and lung,[1]; animal models,decreases
same,lung inflammation in animal models,[1]; animal models,protect against lung inflammation
same,efficacy following i.p. injection,"[1]; mice, Wen et al. 2015",effective
same,efficacy following 4-hour i.v. infusion,"[1]; rats, Waldron et al. 2019",effective
same,cytokines and neutrophil infiltration in lung tissue,[2],inhibit
same,"phototoxicity, in vitro 3T3",3T3,potentially phototoxic
same,Ames bacterial reverse mutation assay result,[3],negative
same,"lung myeloperoxidase; pancreas trypsin activity, myeloperoxidase activity and histopathological indices",[4],markedly reduced
same,IC50,[5],178 ± 32 nM
same,"DNA reactivity, bone marrow micronucleus and liver Comet assays",[6],no evidence of DNA reactivity
same,IC50,"[7]; Homo sapiens, PBMC, mean of replicates, read-out: Mean IC50, TNFα released from human PBMCs",225 nM
same,IC50,"[7]; Homo sapiens, PBMC, single replicates, read-out: Replicate IC50 values, TNFα released from human PBMCs",278 nM
same,IC50,"[7]; single replicates, read-out: Replicate IC50 values, TNFα released from human PBMCs",173 nM
same,Cmax accumulation,"[8]; MAD Group 1, 0.5 mg/kg",1.6 fold
same,"increase in systemic exposure (AUC24 h), Day 7 compared to Day 1","[8]; MAD Group 1, 0.5 mg/kg",2.6 fold
same,margin of Day 7 AUC24 h below NOAEL AUC24 h in monkey,"[8]; MAD Group 1, 0.5 mg/kg",9.1 fold
same,Cmax accumulation,"[8]; MAD Group 2, 1.0 mg/kg",1.4 fold
same,"increase in AUC24 h, Day 7 compared to Day 1","[8]; MAD Group 2, 1.0 mg/kg",2.6 fold
same,margin of Day 7 AUC24 h below NOAEL AUC24 h in monkey,"[8]; MAD Group 2, 1.0 mg/kg",4.2 fold
same,clinically significant laboratory abnormalities,[8]; MAD group 1,No laboratory abnormalities
same,SAEs and AEs classified as moderate or severe,"[8]; MAD group 1, 0.50 mg/kg daily for 7 days",no SAEs and no AEs classified as moderate or severe in intensity
same,number of clinical AEs (all mild),"[8]; MAD group 1, eight subjects incl. placebo",15
same,clinically significant laboratory abnormalities,[8]; MAD group 2,No laboratory abnormalities
same,SAEs and AEs classified as moderate or severe,"[8]; MAD group 2, 1.0 mg/kg daily for 7 days",no SAEs and no AEs classified as moderate or severe in intensity
same,number of AEs (all mild),"[8]; MAD group 2, eight subjects incl. placebo",three
same,"cardiac function: heart rate, QTcF, B-type natriuretic peptide","[8]; MAD, both groups",no evidence of any sustained treatment related effect
same,systolic or diastolic blood pressure,"[8]; MAD, both groups",no evidence of any sustained treatment related increase
same,AUC(0-t),[8]; 0.5 mg/kg,3190 ng·h/mL
same,Cmax,[8]; 0.5 mg/kg,363 ng/mL
same,AUC(0-t),[8]; 1 mg/kg,6830 ng·h/mL
same,Cmax,[8]; 1 mg/kg,637 ng/mL
same,"Discharge IL-6 levels, patients with 150 pg/mL ≤ IL-6 < 1000 pg/mL","[9]; 2a High Dose Regimen + SC, admission 1",1
same,"Discharge IL-6 levels, patients with IL-6 ≥ 1000 pg/mL","[9]; 2a High Dose Regimen + SC, admission 2",0
same,"Discharge IL-6 levels, patients with IL-6 ≥ 1000 pg/mL","[9]; 2a Low Dose Regimen + SC, admission 0",0
same,"Discharge IL-6 levels, patients with 150 pg/mL ≤ IL-6 < 1000 pg/mL","[9]; 2a Low Dose Regimen + SC, admission 4",0
same,patients in whom IL-6 levels decreased to below 150 pg/mL,"[9]; Tests 201 and 202 pooled, maximum IL-6 ≥150 pg/mL in the first 24 hours",7 of 8
same,procalcitonin at discharge,[9]; first critically ill AP patient,0.24 ng/mL
same,IL-6 at 120 hrs,"[9]; first critically ill AP patient, IL-6 >7296 pg/mL at study entry",66 pg/mL
same,TEAEs with causality considered Possible (Chromaturia),[9]; high dose regimen+SC,1 TEAE
same,patients with SAEs,"[9]; high dose regimen+SC, 1 of 6",17%
same,patients with Acute Respiratory Distress Syndrome,"[9]; high dose regimen+SC, 2 of 6",33%
same,patients with Confusional State,"[9]; high dose regimen+SC, 2 of 6",33%
same,patients with Malnutrition,"[9]; high dose regimen+SC, 2 of 6",33%
same,patients with severe TEAEs,"[9]; high dose regimen+SC, 2 of 6",33%
same,patients with treatment-emergent AEs (TEAEs),"[9]; high dose regimen+SC, 5 of 6 patients",83%
same,patients with TEAEs leading to discontinuation of the study drug,"[9]; high dose regimen+SC, 3 TEAEs",2 patients
same,deaths during the study,"[9]; high dose regimen+SC, Hypoxic-Ischemic Encephalopathy, causality Unrelated",1 death
same,IL-6 levels in patients,[9]; in vivo,marked reduction
same,respiratory dysfunction in patients,[9]; in vivo,beneficial effects
same,safety in critically ill patients,"[9]; intravenous, 90 days in patients with AP, SIRS plus hypoxemia",safe
same,"changes in vital signs, oxygenation, and laboratory values",[9]; low dose or high dose regimen,no untoward changes
same,safety and tolerability,[9]; low dose regimen+SC and high dose regimen+SC,well tolerated
same,patients with severe TEAEs,"[9]; low dose regimen+SC, 0 of 8",0%
same,patients with Headache,"[9]; low dose regimen+SC, 2 of 8",25%
same,patients with Hypokalemia,"[9]; low dose regimen+SC, 2 of 8",25%
same,patients with SAEs,"[9]; low dose regimen+SC, 2 of 8",25%
same,patients with treatment-emergent AEs (TEAEs),"[9]; low dose regimen+SC, 7 of 8 patients",88%
same,procalcitonin levels versus the standard of care,[9]; phase 2a study patients,did not increase
same,procalcitonin at discharge,[9]; second critically ill AP patient,0.30 ng/mL
same,IL-6 at 120 hrs,"[9]; second critically ill AP patient, IL-6 1021 pg/mL at study entry",83 pg/mL

# Reference: patent publication US12544371B2, “Methods and compositions for treating acute lung injury and acute respiratory distress syndrome” (CalciMedica, Inc., priority 2020, dated 2026)
